The values that follow come from US7122193B1 (priority 1994, dated 2006).

Like-named read-outs stand apart in the source and are kept apart here. Ends that are not written are not given here. Peptide text beside a SMILES is read from it. Where only a bound is given, the exact number is not on record here.

The target of data set [1] is MAb 11 × 2 (IgG3) anti-D peptide.
The target of data set [2] is MAb 11 × 7 (IgG3) anti-D peptide.
The subject of data set [3] is trypsin. The note with it: pH 7.4.
The nature of data set [4]: in vitro. To be noted: pH 7.4.
The subject of data set [5] is anti-virus serum raised in rabbit and serum against the 91–108 sequence expressed at the surface of Salmonella flagellin. The format is binding. To be noted: FIGS. 14 and 15.
Data set [6] has as its target I-A^d class II molecules (Mus musculus, UniProt P01921+P04228). The data set is classed as cell-based.
Data set [7] deals with I-E^d class II molecules (Mus musculus, UniProt P01904+P01915). The format is cell-based.
I-E^d class II molecules, sequence (P01904 26-255 limits assumed): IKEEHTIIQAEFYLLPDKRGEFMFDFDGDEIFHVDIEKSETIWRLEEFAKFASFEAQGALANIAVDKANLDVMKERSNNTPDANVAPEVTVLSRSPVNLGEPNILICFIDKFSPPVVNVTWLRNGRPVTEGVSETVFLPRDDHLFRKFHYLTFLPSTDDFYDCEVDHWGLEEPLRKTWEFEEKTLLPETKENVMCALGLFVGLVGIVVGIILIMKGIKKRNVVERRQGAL
I-E^d class II molecules, sequence (P01915 27-264 limits assumed): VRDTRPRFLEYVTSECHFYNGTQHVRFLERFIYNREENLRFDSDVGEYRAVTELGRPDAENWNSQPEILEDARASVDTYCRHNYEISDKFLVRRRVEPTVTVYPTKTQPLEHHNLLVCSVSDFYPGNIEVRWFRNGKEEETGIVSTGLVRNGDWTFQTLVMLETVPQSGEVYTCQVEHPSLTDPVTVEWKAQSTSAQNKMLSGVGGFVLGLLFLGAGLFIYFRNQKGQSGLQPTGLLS
Data set [8] concerns peptide-primed T lymphocytes from BALB/c mice. The format is cell-based, mouse.
The test system is the same in data set [9]. The format is cell-based, mouse. The source holds these as a separate data set.
Data set [10] relates to BALB/c mice. To be noted: mouse, in vivo.
For data set [11], the system named is I-E^d-restricted T-cell hybridomas 45G10, 44B1 and 41C1. The format is cell-based, mouse.
The test system of data set [12] is TCR of peptide-primed lymph node T-cells. The format is cell-based, mouse.
Data set [13] concerns sera of patients suffering from various systemic rheumatic diseases. The data set is classed as binding, human.
Data set [14] relates to HLA-A2. The data set is classed as binding, human.
For data set [15], the system named is IgG antibodies of sera of patients suffering from DLE and SS. The format is binding, human.
For data set [16] the test system is unchanged. The data set is classed as binding, human. How it is done: FIG. 6: ELISA reactivity of serum samples originating from patients suffering from DLE and SS with the parent peptide and the analogue RIb 277–291 of Ro52. The sera of the patients are diluted to 1:1,000. Only the antibody activity of the sub-class IgG is measured. The median values of the optical density are indicated. The broken line represents the upper limit of the normal population corresponding to the mean value of the optical density of 20 normal human sera+2 SD (standard deviation) (0.30 OD units).
Sera of female F1 lupous mice (NZB/W) were obtained from S. Batsford (Freibourg, Germany). The human sera originate from patients suffering from disseminated lupus erythematosus (DLE) and Sjögren's syndrome (SS). They were obtained from D. A. Isenberg (London), O. Meyer (Paris) and G. Fournié (Toulouse). The sera of healthy volunteers were obtained from J. L. Pasquali (Strasbourg).
The sera of lupous mice were tested by ELISA as described previously (Benkirane, N., Friede, M., Guichard, G., briand, J. P., Van Regenmortel, M. H. V. and Muller, S. (1993) Antigenicity and immunogenicity of modified synthetic peptides containing D-amino acid residues. J. Biol. Chem., 268: 26279–26285). Only the antibodies of isotype IgG were tested. […] Clin. Exp. Immunol., 95: 397–407) except in the case of the peptide Ro52 277–291, where sensitization of the ELISA plates was carried out at 4° C. instead of 37° C. (see the reasons above). The threshold value for positivity of each test, including that of tests based on the use of retro-inverso peptide analogues, was determined using 20 sera of healthy individuals. The antigenic activity of the peptides is also measured by ELISA using a liquid phase inhibition test.
The 30 sera (positive or negative with respect to the L peptide) were tested in parallel with the RIa and RIb analogues. It was shown that all the sera positive with the L peptide were also positive with the retro-inverso peptides. […] The mean optical density corresponding to the arithmetic mean of all the optical density values, including the values below the threshold line of positivity, is 0.21 (standard deviation 0.25) and 0.51 (standard deviation 0.62) with the L and RIb peptides respectively.
The source holds these as a separate data set.

The subject of data set [17] is antibodies of sera of patients bonding to the RIb peptide. The data set is classed as binding, human.

For orientation: half-life means the time needed for the level to fall by half in the phase considered. Low readings indicate rapid decline, high ones slow decline.

I-A^d class II molecules, sequence (P04228 24-256 limits assumed): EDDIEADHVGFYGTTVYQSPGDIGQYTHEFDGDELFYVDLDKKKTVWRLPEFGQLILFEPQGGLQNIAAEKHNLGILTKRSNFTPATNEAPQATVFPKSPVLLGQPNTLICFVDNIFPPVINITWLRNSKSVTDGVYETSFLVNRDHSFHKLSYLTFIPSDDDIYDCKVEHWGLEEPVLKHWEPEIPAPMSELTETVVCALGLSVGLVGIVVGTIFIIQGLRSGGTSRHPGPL
I-A^d class II molecules, sequence (P01921 28-265 limits assumed): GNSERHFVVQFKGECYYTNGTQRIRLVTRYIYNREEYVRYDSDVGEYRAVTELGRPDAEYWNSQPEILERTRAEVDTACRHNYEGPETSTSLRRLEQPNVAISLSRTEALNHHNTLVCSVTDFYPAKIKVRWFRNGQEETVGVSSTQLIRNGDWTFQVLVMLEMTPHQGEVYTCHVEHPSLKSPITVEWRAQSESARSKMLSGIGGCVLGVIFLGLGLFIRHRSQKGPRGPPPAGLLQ

`CC[C@@H](C)[C@@H](NC(=O)CNC(=O)CNC(=O)[C@H](N)CS)C(=O)N[C@H](CCCNC(=N)N)C(=O)NCC(=O)N[C@H](CCC(=O)O)C(=O)N[C@H](CCCNC(=N)N)C(=O)N[C@H](C)C(=O)O` [D peptide] (HELM PEPTIDE1{[dC].G.G.[dI].[dR].G.[dE].[dR].[dA]}$$$$V2.0): in [1], the “BIAcore (Ka M^−1) affinity constant at equilibrium” value stood at 1e+10 M⁻¹ and the “Ka (affinity constant at equilibrium)” value is reported as 13,000 ×10^6 M^−1. In addition, in data set [2], the “BIAcore (Ka M^−1) affinity constant at equilibrium” value came out at 1e+07 M⁻¹ and the “Ka (affinity constant at equilibrium)” value stood at 1.2e+07 M⁻¹. The “time to complete loss of immunological activity on digestion with immobilized trypsin” value in [3] is over 240 min. For the same compound, the half-life in [4] came out at 1.22 h.
With “Ac-CKAFSNSYPYDVPDYASL-NH2 [double blocked L-peptide *C18L*]”, the “recognition by the tested antibodies (ELISA)” value in data set [5] is on record as “substantially recognized in the same way”.
“Ac-YFMYSKLRVQKSC-NH2 [L-peptide 435–446 of γ2a^b]”: the “reduction of the IL-2 production level” value in [6] is listed as over 88%. For the same compound, the “inhibition (of IL-2 production / binding of cI 12–26)” value in data set [7] is given as “Up to 84%”. Also, in [8], the “proliferation and IL-2 production of lymph node cells of mice immunized with retro-inverso analogue 435–446 of γ2a^b, stimulated by the peptide” value is “proliferation of lymph node cells and IL-2 production were observed”; the “proliferation of T-lymphocytes of mice immunized with parent peptide 435–446 of γ2a^b, stimulated by the peptide” value is recorded as “induced a proliferative T-cell response”. Moreover, in data set [9], the “IL-2 production of T-lymphocytes of mice immunized with parent peptide 435–446 of γ2a^b, stimulated by the peptide” value is listed as “only observed after stimulation by the parent peptide” and the “maximal IL-2 secretion measured using CTL-L cells in the presence of Con A” value (from here on “maximal IL-2 secretion measured”) is on record as 21 565 cpm. In addition, in data set [10], the “cross-reaction in ELISA of antibodies raised against the peptide with the counterpart (L or retro-inverso) peptide” value is “showed no cross-reaction”.
Regarding “CH3CO-(D)Cys-(D)Ser-(D)Lys-(D)Gln-(D)Val-(D)Arg-(D)Leu-(D)Lys-(D)Ser-(D)Tyr-(D)Met-(D)Phe-(D)Tyr-NH2 [retro-inverso peptide 435–446 of γ2a^b]”, in [6], the “inhibition, in words” value is given as “almost no inhibition” and the “reduction of the IL-2 production” value was “about 35%”. For the same compound, the “inhibition (of IL-2 production / binding of cI 12–26)” value in [7] is listed as at most 48%. Further, in data set [9], the “IL-2 production of T-lymphocytes of mice immunized with parent peptide 435–446 of γ2a^b, stimulated by the peptide” value was “failed to induce detectable IL-2 secretion” and the “maximal IL-2 secretion measured” value is listed as 26 445 cpm.
On to “CH3CO-Lys-Leu-Phe-AI a-Val-Trp-Lys-Ile-Thr-Tyr-Lys-Asp-Thr-NH2 [L-peptide 103–115 of poliovirus VP1]”, for which the “binding to I-A^d transfected fibroblasts, in words” value in [6] was “Neither the L- nor the retro-inverso peptides bound”. Moreover, in data set [7], the “inhibition (of IL-2 production / binding of cI 12–26)” value is “up to 77%”. In [8], the “proliferation of T-lymphocytes of mice immunized with retro-inverso analogue 103–115, in response to the peptide” value is listed as “a good proliferative response” and the “proliferation of lymph node cells of mice immunized with parent peptide 103–115, stimulated in vitro by the peptide” value was “proliferated”. Besides, in data set [9], the “IL-2 production of T-lymphocytes of mice immunized with retro-inverso analogue 103–115, in response to the peptide” value is given as “IL-2 production were also found”; the “IL-2 production of lymph node cells of mice immunized with parent peptide 103–115, stimulated in vitro by the peptide” value is given as “produced significant levels of IL-2”; the “maximal IL-2 secretion measured” value is listed as 10 990 cpm. Also, the “IL-2 production of T-cell hybridomas stimulated by the peptide” value in data set [11] was “produced high levels of IL-2”. In addition, in data set [12], the “IL-2 production by T-cells primed with the retro-inverso analogue 103–115 in response to the peptide” value is “significantly increased”. The “cross-reaction in ELISA of antibodies raised against the peptide with the counterpart (L or retro-inverso) peptide” value in [10] is “cross-reacted, although less efficiently”.
“CH3CO-Ser → Ala → Pro → Ala → Thr → Gly → Gly → Val → Lys → Lys → Pro → His → Arg → Tyr → Arg → Pro → Gly → Thr-NH2 [blocked L peptide 28–45]”: in data set [13], the “number of positive sera” value was 20, the “number of positive sera DLE” value turned out to be 12 and the “percentage of positive sera” value stood at 29%.
As for GILGFVFAL [Ala 65], in data set [14], the “fixing to the molecule HLA-A2 (fluorescence), in words” value (from here on “fixing to the molecule HLA-A2”) is listed as “very active”.
On to GLLGFVFTL [Leu 59], for which, in data set [14], the “fixing to the molecule HLA-A2” value is given as “very active”.
“H2 N-D-Val ← D-Cys ← D-Glu ← D-Lys ← D-Leu ← D-Cys ← D-Asn ← D-Glu ← D-Lys ← D-Leu ← D-Leu ← D-Lys ← D-Lys ← D-Ala ← D-Arg ← D-Ile ← D-His ← D-Pro ← D-Phe ← D-His ← D-Ile-COCH3 [Blocked RI peptide 304–324 of Ro60]”: in [15], the mean optical density is 1.15, the “number of sera which reacted” value is recorded as 15/20 and the “percentage of sera which reacted” value is given as 75%.
With “H2N-Gly ← D-Leu ← D-Lys ← D-Lys ← D-Nle ← D-Leu ← D-Arg ← D-Thr ← D-Cys ← D-Ala ← D-Val ← D-His ← D-Ile ← D-Thr ← (R,S)-mLeu-OH [RIb peptide]”, the “sera of patients tested in which anti-peptide 277–291 antibodies are detected” value in [16] (30 sera of DLE and SS patients) was 50%. The compound also gave a mean optical density in data set [16] (arithmetic mean of all 30 sera, peptide 277–291 of Ro52) of 0.51. In addition, the “number of sera which reacted among the 25 sera negative with the L peptide” value in data set [16] (threshold 0.30 OD units) is listed as 10. The “inhibition of bonding of the antibodies to the RIb peptide” value in data set [17] is on record as “up to 79.2%”.
In the case of “H → Gly → Leu → Lys → Lys→ Nle → Leu → Arg → Thr → Cys → Ala → Val → His → Ile → Thr → Leu → OH [L peptide 277–291]”, in [17], the “inhibition of bonding of the antibodies to the RIb peptide” value is recorded as “up to 75.8%”.
Take “H-CKAFSNSYPYDVPDYASL-OH [parent L-peptide C18L]”: the “recognition by the tested antibodies (ELISA)” value in data set [5] was “substantially recognized in the same way”.
On to “H-Ser → Ala → Pro → Ala → Thr → Gly → Gly → Val → Lys → Lys → Pro → His → Arg → Tyr → Arg → Pro → Gly → Thr-OH [natural L peptide 28–45]”, for which, in [13], the “number of positive sera” value is 12, the “number of positive sera DLE” value came to 8 and the “percentage of positive sera” value was determined as 17.4%.
Consider [gLeu^60–mGly^61] M58–66 [GG5], for which the “fixing to the molecule HLA-A2” value in data set [14] is given as “do not bond to the HLA-A2 molecule”.
